{
  "source": "patent US8173604B2",
  "about": "“Inhibition of Skp2-cyclin a interaction” (Albert Einstein College of Medicine of Yeshiva University, priority 2006, dated 2012)",
  "key": {"[1]": {"tested_on": "cyclin A-associated kinase activity", "test": "IP-kinase assay of anti-cyclin A and anti-Cdk2 immune complexes from peptide-treated U2OS cells", "type": "cell-based, human", "settings": "50 μM peptide, twelve hours, compared with TAT-4060AAAA or TAT-Umt", "experimental": "(§1) FIG. 12 is photographs of western blots and kinase assays and graphs showing the effects of trans-membrane delivery of the 4060 peptide. In Panel A, U2OS cells were treated with 50 μM of indicated peptide for twelve hours. Cell extracts were prepared for immunoprecipitation and Western blot analysis as indicated. […] In Panel C, the same extracts were used in IP-kinase assays as indicated. The extent of phosphorylation was quantified and plotted.\n(§2) The loss of Skp2-cyclin A/Cdk2 interaction was not due to a reduction in levels of these proteins (FIG. 12B). Importantly, cellular p27 protein levels were not affected by the blocking peptide. […] Here, it is important to point out that although we used p27 as an inhibitor of cyclin A-associated kinase activity in purified kinase reactions with the 4060 blocking peptide shown in FIG. 11, the effects of blocking Skp2-cyclin A interaction on cyclin A-associated kinase activity in cells is unlikely to be mediated by p27 alone. There was no significant interaction between p27 and cyclin A in U2OS cells before and after treatment of TAT-4060. p27 family members p21 and p57, and the pocket proteins p107 and p130 (Adams et al., 1996) may bind and inhibit cyclin A-associated kinase activity through the RxL-HP interaction mechanism. […]"}, "[2]": {"tested_on": "human diploid fibroblasts WI-38", "test": "Cell survival MTS assay, WI-38", "type": "cell-based", "settings": "120 μM, 24 hours", "experimental": "In comparison, both TAT-Umt and TAT-4060 inhibited cyclin A/Cdk2 kinase activity in vitro at peptide concentrations of 100 μM (FIG. 11B). It is currently unknown how peptide concentrations in the culture media translate into intro-cellular peptide concentrations.\n(§3) Cell proliferation and survival assays. For the cell proliferation assay shown in FIG. 10D, 1×10^4 cells were plated in each well of 24 well plates and allowed to grow for a course of four days in the presence of 10% FBS. Cell numbers were counted every day from triplet wells. For cell survival assays in FIGS. 13, 14 and 15, 1×10^3 cells were plated in each well of 96 well plates and allowed to adhere overnight in the presence of 10% FBS. The cells were washed once with Opti-MEM (GIBCO) followed by incubation with different concentrations of peptides in Opti-MEM for 24 hours in triplicate. MTS assay was then performed following manufacturer's protocol (Promega)."}, "[3]": {"molecular_target": "T1, interaction between cellular Skp2 and cyclin A/Cdk2 (Homo sapiens, UniProt P20248)", "T1 construct": "endogenous in cells; host or cells: U2OS", "test": "Coimmunoprecipitation with cyclin A from peptide-treated U2OS cells", "type": "cell-based", "settings": "50 μM peptide, twelve hours", "experimental": "as §1, §2"}, "HeLa cells": {"tested_on": "HeLa cells", "test": "Cell survival MTS assay, HeLa", "type": "cell-based, human", "settings": "high levels of Skp2", "text": "IC50 of the 4060 peptide positively correlates with Skp2 protein abundance in cancer cells. Skp2 is frequently overexpressed at various levels in various cancer cells. If TAT-4060 kills cancer cells by disrupting Skp2-cyclin A interaction, higher peptide concentrations should be needed to kill cancer cells with higher levels of Skp2. In comparison, since TAT-LDL is believed to kill cancer cells by blocking access of cyclin A to E2F1, there need not be a direct correlation between effective TAT-LDL concentrations and cellular Skp2 protein levels. To test this prediction, Skp2 protein levels and IC50 of both TAT-4060 and TAT-LDL was determined for the panel of four cancer cell lines.\nas §3"}, "cyclin A/Cdk2 [4]": {"molecular_target": "T2, cyclin A/Cdk2 (Homo sapiens, UniProt P20248+P24941)", "T2 construct": "made in house; host or cells: insect cells (baculovirus)", "test": "In vitro cyclin A/Cdk2 kinase assay with purified proteins (GST-Rb-C substrate)", "type": "biochemical", "experimental": "(§4) Cyclin A/Cdk2 kinase assays were performed as described previously (Ji et al., 2004). Both immuno-purified myc-cyclin A/Cdk2 on beads and GST-purified and eluted GST-cyclin A/Cdk2 (baculovirus vectors for GST-cyclin A and Cdk2 were provided by Brian Dynlacht) were used. The amounts of purified proteins were determined by comparing them with known amounts of standard proteins in Coomassie blue stained gels. Phosphorylation of GST-Rb-C was quantified with the ImageQuant software. The Ki of various proteins was determined by non-linear least squares analysis. To determine the amounts of various proteins in synchronized HeLa cells, extracts representing 7.5×10^4 HeLa cells were resolved with known amounts of purified proteins and compared in the same Western blots. Actual amounts of proteins in 7.5×10^4 HeLa cells were then determined (for example, the amounts of p27, Skp2, and cyclin A in 7.5×10^4 HeLa cells were determined to be about 0.1, 0.2, and 0.1 pmoles, respectively, at 14 hours post-replating; and about 0.01, 0.1, and 1.0 pmoles, respectively, at 19 hours post-replating).\nFor kinase reactions, insect cell-produced and purified GST-cyclin A/Cdk2 was used at a concentration of ˜3 nM, which was the lowest concentration that yielded readily detectible phosphorylation of GST-Rb-C here. Purified p27, GST-Skp2, and Skp2N were titrated into the kinase reaction over a wide range of concentrations (FIGS. 7A, B, and C). Phosphorylation of Rb-C was measured and plotted, and the Ki of these various proteins were determined by non-linear least squares analysis (FIG. 7F).\nSince Skp2 competes with p27 for binding to cyclin A and Skp2's Ki is about 100-fold higher than p27's Ki, it can be reasoned that, at concentrations well below its Ki, Skp2 might be able to protect cyclin A/Cdk2 from inhibition by p27. To test this hypothesis, the same cyclin A/Cdk2 kinase assay was carried out to determine the inhibitory activity of p27 in the presence of 80 nM of Skp2N.\nIt was then determined whether the 4060 peptide could prevent Skp2N from protecting cyclin A/Cdk2 from inhibition by p27. […] When 80 nM of Skp2N was included, 5 nM of p27 lost its ability to inhibit the kinase activity (lane 3). […] These findings indicate that the Skp2-cyclin A interaction is also a potential target to inhibit cyclin A kinase activity in tumor cells, particularly those overexpressing Skp2.\nTo test this prediction, various peptides were added to an in vitro kinase reaction with purified cyclin A/Cdk2 (˜3 nM concentration). An E2F1-derived RxL peptide, LDL peptide, was used for comparison since it could inhibit cyclin A/Cdk2 kinase activity (Sun et al., 2006, and see next section). Since a TAT sequence was later added to these peptides for trans-membrane delivery (see next section), two versions of each peptide (without TAT and with TAT) was used in these kinase assays. These two versions of peptides yielded identical results and therefore only presented results with one version of the peptides.\nThe effects of the 4060 peptide on cyclin A/Cdk2 kinase activity in the presence of Skp2 and p27 were then determined."}, "U2OS cells": {"tested_on": "U2OS cells", "experimental": "It is currently unknown how peptide concentrations in the culture media translate into intro-cellular peptide concentrations.\nWhether artificial manipulation of Skp2 protein levels in U2OS cells could change the IC50 of various peptides was also investigated.\nas §3"}, "p27": {"tested_on": "p27", "test": "Western blot of peptide-treated U2OS cell extracts", "type": "cell-based, human", "settings": "U2OS cells, 50 μM peptide, twelve hours", "experimental": "as §1, §2"}, "p27-cyclin A interaction": {"molecular_target": "T3, p27-cyclin A interaction (Homo sapiens, UniProt P20248)", "T3 construct": "expressed in transfected cells; host or cells: 293T (cyclin A/Cdk2)", "test": "GST pull-down, blocking of p27-cyclin A interaction", "type": "binding", "settings": "GST-p27, myc-cyclin A/Cdk2 transfected 293T cell extracts", "experimental": "(§5) GST pull down, p27 ubiquitylation assay, and cyclin A kinase assay. GST fusion proteins were purified on GSH-beads (Amersham), which were then incubated with transfected cell extracts for 1 hour in 4° C. with rocking. The beads were washed three times with lysis buffer (25 mM Hepes pH 7.6, 100 mM KCl, 0.1 mM EDTA, 10 mM MgCl2, 0.1% NP-40, 10% glycerol, 1 mM DTT) before analysis by SDS-PAGE and Western blotting.\n(§6) Skp2-cyclin A interaction and p27-cyclin A interaction can be blocked by distinct peptides. An important aspect of the RxL-1-IP interaction is that it can be blocked by a short RxL peptide (Adams et al., 1996). If the Skp2-cyclin A/Cdk2 interaction and the p27-cyclin A/Cdk2 interaction are mediated by different sequences on both sides of the interaction, as shown above, it can be predicted that the RxL peptide should not block Skp2-cyclin A interaction. […] Peptide concentrations required for their respective blocking activities were similar for RxL and 4060 peptides.\nSkp2 competes with p27/p21, but not E2F1, for binding to cyclin A. Whether the apparently distinct Skp2-cyclin A interaction and p27-cyclin A interaction are competitive against each other was next evaluated. […] Whether the competition between Skp2 and p27/p21 for cyclin A binding could be observed in vivo with endogenous proteins under physiological conditions was next determined. […]"}, "[5]": {"molecular_target": "T4, Skp2-cyclin A interaction (Homo sapiens, UniProt P20248)", "T4 construct": "expressed in transfected cells; host or cells: 293T (cyclin A/Cdk2)", "test": "GST pull-down, blocking of Skp2-cyclin A interaction by peptides", "type": "binding", "settings": "GST-Skp2N, myc-cyclin A/Cdk2 transfected 293T cell extracts", "experimental": "as §5, §6"}, "cyclin A/Cdk2 [6]": {"molecular_target": "T2, cyclin A/Cdk2", "test": "IP-kinase assay with myc-cyclin A/Cdk2 transfected 293T cell extract", "type": "biochemical", "settings": "increasing amounts of peptide", "experimental": "In panel A, an IP-kinase assay was performed with myc-cyclin A/Cdk2 transfected 293T cell extract in the presence of increasing amounts of RxL or 4060 peptides. Phosphorylation of GST-Skp2N is visible in this gel. […] As indicated, increasing amounts of the 4060 or 4060AAAA peptides were included in the reactions. Phosphorylation of Rb-C was quantified and plotted as shown.\nas §4, with “To determine the amounts of various proteins in synchronized HeLa cells, extracts representing 7.5×10^4 HeLa cells were resolved with known amounts of purified proteins and compared in the same Western blots.” left out, “post-replating). […]” for “post-replating).”"}},
  "note": "Like-named read-outs stand apart in the source and are kept apart here. Ends that are not written are not given here.",
  "data": [
    {"sequence": "YGRKKRRQRRRGKTSELLSGMGVSALEKEE [TAT-4060]", "values": [
      {"measurement": "Kinase activity in anti-cyclin A and anti-Cdk2 immune complexes", "setting": "[1]", "value": "clear reduction"},
      {"measurement": "WI-38 cells killed", "setting": "[2]", "value": "no effect"},
      {"measurement": "Dissociation of interaction between cellular Skp2 and cyclin A/Cdk2", "setting": "[3]", "value": "resulted in dissociation"},
      {"measurement": "Peptide concentration required for cell killing", "setting": "HeLa cells", "value": "very high concentrations"},
      {"measurement": "Inhibitory effect on cyclin A/Cdk2 kinase activity", "setting": "cyclin A/Cdk2 [4]; 1 μM and 10 μM peptide", "value": "did not show inhibitory effect"},
      {"measurement": "Inhibition of cyclin A/Cdk2 kinase activity", "setting": "cyclin A/Cdk2 [4]; 100 μM peptide", "value": "significant inhibition"},
      {"measurement": "Concentration of peptide to achieve 40% killing", "setting": "U2OS cells; U2OS with artificial decrease in Skp2 protein levels (knockdown)", "value": 20, "unit": "µM"},
      {"measurement": "Cell killing effectiveness", "setting": "U2OS cells; U2OS with artificial increase of Skp2 protein levels (overexpression)", "value": "nearly as ineffective as TAT-Umt"},
      {"measurement": "Cell killing effect of single peptide", "setting": "U2OS cells; U2OS, 1 or 2 μM, 24 hours", "value": "neither TAT-LDL nor TAT-4060 exhibited any cell killing effects"},
      {"measurement": "Concentration of peptide to achieve 40% killing", "setting": "U2OS cells; U2OS, Skp2 levels not manipulated", "value": 40, "unit": "µM"},
      {"measurement": "Cell killing effect", "setting": "U2OS cells; U2OS, twenty four hours after addition of peptides", "value": "induced significant cell death"},
      {"measurement": "IC50", "setting": "U2OS cells; read-out: IC50 of cell killing, U2OS, 24 hours, MTS", "value": 35, "unit": "µM"},
      {"measurement": "Cellular p27 protein levels", "setting": "p27", "value": "not affected"}
    ]},
    {"sequence": "SACRNLFG (peptide RxL) [reference compound]", "values": [
      {"measurement": "Blocking of p27-cyclin A interaction", "setting": "p27-cyclin A interaction", "value": "blocking the p27-cyclin A interaction"},
      {"measurement": "Blocking of Skp2N-cyclin A interaction", "setting": "[5]", "value": "but not the Skp2N-cyclin A interaction"},
      {"measurement": "Effect of peptide itself on cyclin A/Cdk2 kinase activity towards Rb-C", "setting": "cyclin A/Cdk2 [6]", "value": "inhibited the kinase activity"}
    ]}
  ]
}
